Source: publication PMC9382192, “Combined treatment with epigenetic agents enhances anti-tumor activity of MAGE-D4 peptide-specific T cells by upregulating the MAGE-D4 expression in glioma” (Frontiers in Oncology, 2022)

How the values were obtained:
[1] = test system: IL-2; assay: IL-2 ELISA of DC/T-cell co-culture supernatant; assay type: cell-based, human; conditions: 72 h co-culture supernatant, versus negative control peptide
Procedure: (§1) Production of cytokines in the supernatants was determined using commercially available ELISA kits (Cloud-Clone Corporation, Wuhan, China) according to the protocol of the manufacturer. Approximately 50 μl of supernatant and different concentration standards were added and mixed with 100 μl of horseradish peroxidase (HRP) labeled detection antibody against a 96-well plate, respectively, except for the blank control. After incubation at 37°C for 60 min, we washed the plate five times. Add substrate A and substrate B 50 μl respectively, incubate for 15min in a 37°C incubator in dark. Then, 50 μl of stop solution was added and a 450 nm absorbance value (OD value) was measured within 15 min. The regression equation of the standard curve is calculated according to the concentration of the standard substance and the OD value, and the corresponding sample concentration is calculated on the basis of the regression equation.

[2] = test system: IFN-γ; assay: IFN-γ ELISA of DC/T-cell co-culture supernatant; assay type: cell-based, human; conditions: 72 h co-culture supernatant, compared to T cells alone
Procedure: as §1

[3] = test system: U251; assay: LDH cytotoxicity assay and HLA block, U251; assay type: cell-based, human
Procedure: The human glioma cell lines (U87-MG and U251) were obtained from the Cell Bank of Type Culture Collection of the Chinese Academy of Science (Shanghai, China). Decitabine (DAC, CAS No. A3656), valproic acid (VPA, CAS No. 99-66-1), and trichostatin A (TSA, CAS No. 58880-19-6) were purchased from Sigma-Aldrich Corporation (St. Louis, MO, USA). DAC and TSA were dissolved in DMSO to a concentration of 10 mM. Aliquots were stored at −80°C and diluted with media before being used. Drug treatments were divided into seven groups: (1) DAC group: cells were cultured in medium on the presence of 1 μM DAC for 120 h; (2) VPA group: cells were grown in medium containing 1 mM VPA for 120 h; (3) TSA group: cells were cultured in medium supplemented with 1 μM TSA for 24 h; (4) D + V group: cells were cultured with 1 μM DAC and 1 mM VPA for 120 h; (5) D + T group: cells were cultured with 1 μM DAC for 120 h, followed by 1 μM TSA for 24 h; (6) Control group: cells were cultured with 0.09% DMSO, which is the highest concentration of DMSO used in this study in consideration of the potential toxicity of DMSO to living cells. Human recombinant interleukin (IL) IL-2, IL-4, and human recombinant granulocyte/macrophage colony-stimulating factor (GM-CSF) were purchased from R&D Systems.
(§2) The cytotoxic activity of MAGE-D4 peptide-specific CTLs to glioma cells was determined according to the instructions of the manufacturers by our published method ([31]). […] Four hours later, suspended cells were collected for CD107a flow cytometry, meanwhile, the supernatant was collected and analyzed with granzyme A and perforin ELISA kit (Cloud-Clone Corporation, Wuhan, China) at 450 nm, and the LDH kit (Promega, USA) at 490 nm. The percentage of specific lysis was calculated using the following formula: [(experimental release − spontaneous release)/(maximum release − spontaneous release)] × 100. […] Then, the cytotoxicity assay was measured and calculated as mentioned above.

[4] = test system: U87; assay: LDH cytotoxicity assay, U87; assay type: cell-based, human; conditions: TSA-treated U87, E:T 50:1, 4 h; compared to T cell alone and NC-T cell groups
Procedure: The human glioma cell lines (U87-MG and U251) were obtained from the Cell Bank of Type Culture Collection of the Chinese Academy of Science (Shanghai, China). Decitabine (DAC, CAS No. A3656), valproic acid (VPA, CAS No. 99-66-1), and trichostatin A (TSA, CAS No. 58880-19-6) were purchased from Sigma-Aldrich Corporation (St. Louis, MO, USA). DAC and TSA were dissolved in DMSO to a concentration of 10 mM. Aliquots were stored at −80°C and diluted with media before being used. […]
as §2

[5] = test system: U87 glioma tissues; assay: CD8 immunohistochemistry of xenograft tissue; assay type: in vivo, BALB/C nude female mice; conditions: MAGE-D4-specific T cells in TSA-treated U87 glioma tissues, IHC
Procedure: Eighteen BALB/C nude female mice aged 4 weeks were provided by the Guangxi Experimental Animal Center. The mice were placed in a light-controlled room at 24 ± 1 °C (light: 7:00–19:00 h, dark: 19:00–7:00 h) and fed under specific pathogen-free conditions. All protocols followed the guidelines of the National Research Council for the Care and Use of Laboratory Animals and were approved by the Animal Ethics Committee of Guangxi Medical University. To develop a xenograft model, 4 × 10^6 U87 cells were inoculated into the flanks of the mice subcutaneously. Two weeks later, mice simultaneously received intraperitoneal peritumorally injections of TSA (0.5 mg/kg) and 1 × 10^7 peptides loaded on CD8^+ T cells, respectively. Every […], tumor volumes were measured simultaneously with a caliper. Mice were sacrificed by euthanasia when visibly ill. Mice injected with negative peptide-induced CTLs and CTLs without peptides were included as controls. The tumor volumes were calculated using the following formula: tumor volume = [(width2 × length)/2]. Immunochemistry was conducted to detect expressions of CD8 on tissue sections. […] Integrated optical density (IOD) was measured by image-Pro Plus software (version 6.0, Media Cybernetics, MD, USA) for images of five randomly selected regions from a slice. The results were expressed as average optical density (AOD = IOD/area).

Compound	IL-2 secreted by DC-stimulated T cells [1]	IFN-γ secretion by T cells (ELISA) [2]	cytotoxicity of peptide-specific T cells (specific lysis, LDH) ([3]; DAC + TSA-treated U251, E:T 50:1, 4 h)	killing efficiency after HLA I block ([3]; target cells pre-incubated with HLA-ABC antibody 50 μg/ml, 37°C 40 min, versus groups without anti-HLA antibodies, Figure 6I)	cytotoxicity of peptide-specific T cells (specific lysis, LDH) [4]	CD8+ T-cell infiltration in tumor tissue [5]
CLPPPNVIL [Peptide P8]	higher IL-2	high levels of IFN-γ	cytotoxicity on the DAC + TSA-treated U251 cells with statistical significance	significantly decreased	higher cytotoxicity	–
CC(/C=C/C(=O)NO)=C\[C@@H](C)C(=O)c1ccc(N(C)C)cc1 [TSA, trichostatin A]	–	–	–	–	–	highest degree
